# Legend:
# [1] = biological target: Insulin-like growth factor 1 receptor (Homo sapiens, UniProt P08069); assay: Inhibition of GST-IGF1R
# [2] = Selectivity ratio of IC50 for GST-IR to IC50 for GST-IGF1R
# [3] = Aqueous solubility at pH 7.4; assay type: physicochemical
# Chain of Insulin-like growth factor 1 receptor (P08069 31-736 limits assumed): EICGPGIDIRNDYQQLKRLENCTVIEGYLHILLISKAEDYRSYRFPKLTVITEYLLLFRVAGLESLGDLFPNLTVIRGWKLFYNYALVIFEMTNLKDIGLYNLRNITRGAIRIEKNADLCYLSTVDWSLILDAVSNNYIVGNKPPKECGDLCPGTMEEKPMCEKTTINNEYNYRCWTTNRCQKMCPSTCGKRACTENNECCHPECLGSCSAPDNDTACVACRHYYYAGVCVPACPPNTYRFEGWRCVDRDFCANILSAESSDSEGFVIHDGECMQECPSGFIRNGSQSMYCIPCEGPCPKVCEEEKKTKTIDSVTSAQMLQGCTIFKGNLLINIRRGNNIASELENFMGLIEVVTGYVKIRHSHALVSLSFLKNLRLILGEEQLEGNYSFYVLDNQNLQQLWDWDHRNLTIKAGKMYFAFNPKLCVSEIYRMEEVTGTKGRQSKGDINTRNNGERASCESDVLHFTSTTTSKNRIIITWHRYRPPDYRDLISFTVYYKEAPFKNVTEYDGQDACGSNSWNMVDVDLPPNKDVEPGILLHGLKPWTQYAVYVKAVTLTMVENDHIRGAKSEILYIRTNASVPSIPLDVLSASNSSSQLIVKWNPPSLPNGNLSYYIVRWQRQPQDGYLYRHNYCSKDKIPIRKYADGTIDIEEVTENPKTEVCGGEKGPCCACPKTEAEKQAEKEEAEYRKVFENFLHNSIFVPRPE
# Chain of Insulin-like growth factor 1 receptor (P08069 741-1367 limits assumed): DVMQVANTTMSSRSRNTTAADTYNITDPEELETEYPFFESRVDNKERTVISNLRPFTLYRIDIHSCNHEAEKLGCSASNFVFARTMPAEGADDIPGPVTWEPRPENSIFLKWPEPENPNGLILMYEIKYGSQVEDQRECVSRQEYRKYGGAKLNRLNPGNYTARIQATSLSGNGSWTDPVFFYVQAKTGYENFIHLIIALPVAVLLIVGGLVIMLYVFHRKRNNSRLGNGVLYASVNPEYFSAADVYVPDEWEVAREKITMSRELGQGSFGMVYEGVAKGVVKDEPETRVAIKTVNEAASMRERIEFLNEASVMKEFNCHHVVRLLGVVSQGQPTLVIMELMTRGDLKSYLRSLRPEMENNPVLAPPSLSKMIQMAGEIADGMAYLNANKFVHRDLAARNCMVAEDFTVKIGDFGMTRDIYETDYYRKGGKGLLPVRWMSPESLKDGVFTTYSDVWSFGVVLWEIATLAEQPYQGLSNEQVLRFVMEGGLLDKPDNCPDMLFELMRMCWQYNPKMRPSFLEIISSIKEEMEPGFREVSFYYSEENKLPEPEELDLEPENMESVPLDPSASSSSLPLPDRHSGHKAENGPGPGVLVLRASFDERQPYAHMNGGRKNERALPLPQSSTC
SMILES,IC50 [1],Ratio IC50 [2],solubility [3]
COc1cc2c(Nc3ccc(Sc4nccn4C)c(Cl)c3)c(C#N)cnc2cc1NCCCN(C)C,151 nM,–,–
CCn1c(Sc2ccc(Nc3c(C#N)cnc4cc(NCCCN5CCOCC5)c(OC)cc34)cc2Br)nc(C)c1C,20 nM,–,–
COc1cc2c(Nc3ccc(Sc4nccn4C)c(Cl)c3)c(C#N)cnc2cc1N(C)CCCN(C)C,150 nM,–,–
COc1cc2c(Nc3ccc(Sc4ccccn4)c(Cl)c3)c(C#N)cnc2cc1OCCCN1CCOCC1,> 10000 nM,–,–
COc1cc2c(Nc3ccc(Sc4nccn4C)cc3)c(C#N)cnc2cc1OCCCN1CCOCC1,1000 nM,–,–
COc1cc2c(Nc3ccc(Sc4nccn4C)c(Cl)c3)c(C#N)cnc2cc1N1CCN(C)CC1,600 nM,–,–
COc1cc2c(Nc3ccc(Sc4ccccc4O)cc3)c(C#N)cnc2cc1OCCCN1CCOCC1,1090 nM,–,–
CCn1c(Sc2ccc(Nc3c(C#N)cnc4cc(NCCCc5ccccc5)c(OC)cc34)cc2Cl)nc(C)c1C,13700 nM,–,–
COc1cc2c(Nc3ccc(Sc4nccn4C)c(Cl)c3)c(C#N)cnc2cc1OCCCN1CCOCC1,66 nM,–,–
CCn1c(Sc2ccc(Nc3c(C#N)cnc4cc(NCCCN(CCO)CCO)c(OC)cc34)cc2Cl)nc(C)c1C,26 nM,–,–

# Other lines, results leading:
IC50 [1],Ratio IC50 [2],solubility [3],SMILES
16 nM,–,–,CCn1c(Sc2ccc(Nc3c(C#N)cnc4cc(NCCCN5CCN(C)CC5)c(OC)cc34)cc2Cl)nc(C)c1C
9 nM,0.17,2000 µg/mL,CCN1CCN(CCCOc2cc3ncc(C#N)c(Nc4ccc(Sc5nc(C)c(C)n5CC)c(Cl)c4)c3cc2OC)CC1
32 nM,–,–,CCC1CCCCN1CCCOc1cc2ncc(C#N)c(Nc3ccc(Sc4nc(C)c(C)n4CC)c(Cl)c3)c2cc1OC (stereo not given)
15 nM,–,–,CCn1c(Sc2ccc(Nc3c(C#N)cnc4cc(OCCCN5CCOCC5)c(OC)cc34)cc2Cl)nc(C)c1C
31 nM,–,–,CCn1c(Sc2ccc(Nc3c(C#N)cnc4cc(OCCCNS(C)(=O)=O)c(OC)cc34)cc2Cl)nc(C)c1C
135 nM,–,–,CCC(=O)C1CCN(CCCOc2cc3ncc(C#N)c(Nc4ccc(Sc5nc(C)c(C)n5CC)c(Cl)c4)c3cc2OC)CC1
17 nM,–,–,CCOC(=O)NN1CCN(CCCOc2cc3ncc(C#N)c(Nc4ccc(Sc5nc(C)c(C)n5CC)c(Cl)c4)c3cc2OC)CC1
45 nM,–,–,CCNC(=O)N1CCN(CCCOc2cc3ncc(C#N)c(Nc4ccc(Sc5nc(C)c(C)n5CC)c(Cl)c4)c3cc2OC)CC1
